Test results published in patent US20100137372A1, “ISOXAZOLINE COMPOUNDS AND THEIR USE IN PEST CONTROL” (priority 2007, published 2010).
Like-named read-outs stand apart in the source and are kept apart here.

Experiments:
[1] = test system: diamondback moth (Plutella xylostella); experiment: Test Example 1: spray of test liquid on cabbage plant, control efficacy against diamondback moth larvae; format: in vivo; conditions: 120 h, active ingredient concentration 500 ppm, 20 ml per cup sprayed on cabbage, 10 third-instar larvae, counted after 5 days
[2] = test system: summer fruit tortrix (Adoxophyes orana); experiment: Test Example 2: artificial feed irrigated with test dilution, mortality of summer fruit tortrix larvae; format: in vivo; conditions: 168 h
Protocol: The formulation of the present compound (79) obtained according to Formulation Example 5 was diluted with water so as to have an active ingredient concentration of 2,500 ppm. Thus, a test dilution was prepared.
The bottom of a polyethylene cup having a diameter of 5.5 cm was covered with a filter paper having the same diameter. Artificial feed (Silkmate 2S; Nihon Nosan Kogyo K.K.) sliced in a thickness of 2 mm was placed on the filter paper, and 1 mL of the above-mentioned test dilution was irrigated on the artificial feed. After air-drying of the test dilution, a filter paper having a diameter of 5.5 cm was placed on the artificial feed, and 30 first-instar larvae of summer fruit tortrix (Adoxophyes orana) were released on this filter paper, after which the cup was closed with a lid. After 7 days, larvae of summer fruit tortrix were counted and the mortality was calculated by the following equation:
Mortality (t)=(Number of dead larvae/Number of released larvae)×100

Row | SMILES | pest or weed control at 500 ppm [1] | mortality at 2500 ppm [2] | mortality at 2500 ppm ([2]; active ingredient concentration 2,500 ppm, 1 mL on artificial feed, 30 first-instar larvae, counted after 7 days, read-out: Mortality)
1 | Cc1ccc(C2=NOC(c3cc(Cl)cc(Cl)c3)(C(F)(F)F)C2)cc1NC(=O)c1ccc(C(F)(F)F)cc1 (centres unmarked) [present compound (31), N-(5-(5-(3,5-dichlorophenyl)-4,5-dihydro-5-trifluoromethyl-3-isoxazolyl)-2-methylphenyl)-4-trifluoromethylbenzamide] | ≥ 80% | – | –
2 | N#Cc1ccc(C(=O)Nc2cccc(C3=NOC(c4cc(Cl)cc(Cl)c4)(C(F)(F)F)C3)c2)cc1 (centres unmarked) [present compound (5), N-(3-(5-(3,5-dichlorophenyl)-4,5-dihydro-5-trifluoromethyl-3-isoxazolyl)phenyl)-4-cyanobenzamide] | ≥ 80% | – | –
3 | Cc1ccc(C2=NOC(c3cc(Cl)cc(Cl)c3)(C(F)(F)F)C2)cc1NC(=O)N(C)C (centres unmarked) [present compound (57), 3-(5-(5-(3,5-dichlorophenyl)-4,5-dihydro-5-trifluoromethyl-3-isoxazolyl)-2-methylphenyl)-1,1-dimethylurea] | ≥ 80% | – | –
4 | COC(=O)Nc1cc(C2=NOC(c3cc(Cl)cc(Cl)c3)(C(F)(F)F)C2)ccc1Cl (centres unmarked) [present compound (79), N-(5-(5-(3,5-dichlorophenyl)-4,5-dihydro-5-trifluoromethyl-3-isoxazolyl)-2-chlorophenyl)-O-methylcarbamate] | – | ≥ 80% | –
5 | COC(=O)NNc1cc(C2=NOC(C)(c3ccccc3)C2)ccc1Cl (centres unmarked) [compound number 1-2, reference compound] | 0% | – | 0%
6 | Cc1ccc(C2=NOC(c3cc(Cl)cc(Cl)c3)(C(F)(F)F)C2)cc1NC(=O)OCC(C)C (centres unmarked) [present compound (64), N-(5-(5-(3,5-dichlorophenyl)-4,5-dihydro-5-trifluoromethyl-3-isoxazolyl)-2-methylphenyl)-O-isobutylcarbamate] | ≥ 80% | – | –
7 | C/C=C/C(=O)Nc1cc(C2=NOC(c3cc(Cl)cc(Cl)c3)(C(F)(F)F)C2)ccc1C (centres unmarked) [present compound (48), N-(5-(5-(3,5-dichlorophenyl)-4,5-dihydro-5-trifluoromethyl-3-isoxazolyl)-2-methylphenyl)crotonamide] | ≥ 80% | – | –
8 | Cc1ccc(C2=NOC(c3cc(Cl)cc(Cl)c3)(C(F)(F)F)C2)cc1NC(=O)c1ccc(F)cc1 (centres unmarked) [present compound (15), N-(5-(5-(3,5-dichlorophenyl)-4,5-dihydro-5-trifluoromethyl-3-isoxazolyl)-2-methylphenyl)-4-fluorobenzamide] | ≥ 80% | – | –
9 | Cc1ccc(C2=NOC(c3cc(Cl)cc(Cl)c3)(C(F)(F)F)C2)cc1NC(=O)c1ccccc1F (centres unmarked) [present compound (13), N-(5-(5-(3,5-dichlorophenyl)-4,5-dihydro-5-trifluoromethyl-3-isoxazolyl)-2-methylphenyl)-2-fluorobenzamide] | ≥ 80% | – | –
10 | COc1ccc(C2=NOC(c3cc(Cl)cc(Cl)c3)(C(F)(F)F)C2)cc1NC(=O)CC(F)(F)F (centres unmarked) [present compound (78), N-(5-(5-(3,5-dichlorophenyl)-4,5-dihydro-5-trifluoromethyl-3-isoxazolyl)-2-methoxyphenyl)-3,3,3-trifluoropropionylamide] | ≥ 80% | – | –
11 | Cc1ccc(C2=NOC(c3cc(Cl)cc(Cl)c3)(C(F)(F)F)C2)cc1NC(=O)c1cccc(Cl)c1 (centres unmarked) [present compound (17), N-(5-(5-(3,5-dichlorophenyl)-4,5-dihydro-5-trifluoromethyl-3-isoxazolyl)-2-methylphenyl)-3-chlorobenzamide] | ≥ 80% | – | –
12 | CCc1ccc(C2=NOC(c3cc(Cl)cc(Cl)c3)(C(F)(F)F)C2)cc1NC(=O)CC(F)(F)F (centres unmarked) [present compound (71), N-(3-(5-(3,5-dichlorophenyl)-4,5-dihydro-5-trifluoromethyl-3-isoxazolyl)-6-ethylphenyl)-3,3,3-trifluoropropionylamide] | ≥ 80% | – | –
13 | O=C(Nc1cccc(C2=NOC(c3cc(Cl)cc(Cl)c3)(C(F)(F)F)C2)c1)c1cccnc1Cl (centres unmarked) [present compound (7), N-(3-(5-(3,5-dichlorophenyl)-4,5-dihydro-5-trifluoromethyl-3-isoxazolyl)phenyl)-2-chloronicotinamide] | ≥ 80% | – | –
14 | CCOC(=O)Nc1cc(C2=NOC(c3cc(Cl)cc(Cl)c3)(C(F)(F)F)C2)ccc1C (centres unmarked) [present compound (60), N-(5-(5-(3,5-dichlorophenyl)-4,5-dihydro-5-trifluoromethyl-3-isoxazolyl)-2-methylphenyl)-O-ethylcarbamate] | ≥ 80% | – | –
15 | Cc1c(NC(=O)CC(F)(F)F)cccc1C1=NOC(c2cc(Cl)cc(Cl)c2)(C(F)(F)F)C1 (centres unmarked) [present compound (72), N-(3-(5-(3,5-dichlorophenyl)-4,5-dihydro-5-trifluoromethyl-3-isoxazolyl)-2-methylphenyl)-3,3,3-trifluoropropionylamide] | ≥ 80% | – | –
16 | COc1ccc(C(=O)Nc2cc(C3=NOC(c4cc(Cl)cc(Cl)c4)(C(F)(F)F)C3)ccc2C)cc1 (centres unmarked) [present compound (30), N-(5-(5-(3,5-dichlorophenyl)-4,5-dihydro-5-trifluoromethyl-3-isoxazolyl)-2-methylphenyl)-4-methoxybenzamide] | ≥ 80% | – | –
